The results in this text go back to US11098041B2 (Merck Patent GmbH, priority 2014, dated 2021).

pIC50: −log10 of the molar value.

In one assay the target is full-length human BTK (Homo sapiens (Human), UniProt Q06187). The experiment in a line: Assay A: microfluidic off-chip mobility shift assay against BTK enzyme. The format is biochemical.
For assay [1], the system named is anti-IgM-induced expression of CD69 on CD19 positive cells (B cells) in human PBMCs. Kind of assay: Assay C: PBMC IC50 assay (anti-IgM-induced CD69 expression). The format is cell-based. As to conditions: anti-IgM stimulation. The protocol:
Btk is critical for mediating the signalling of B cell antigen receptor (BCR) after anti-IgM stimulation. Based on this principle, a functional cell-based assay was established to determine the potency of compounds at inhibiting anti-IgM-induced expression of CD69, a downstream BCR signaling event, in freshly isolated human peripheral blood mononuclear cells (PBMCs). In the assay, a 90 μl PBMC suspension containing 2.5×10^5 cells was pre-treated with 10 μl of test compound at various concentrations for an hour, and then incubated overnight (approximately 16-18 hours) with 5 μl 420 μg/ml affiniPure F(ab′)2 fragment goat anti-human IgM Fc fragment per well (Dianova, Cat. No.: 109-006-129). After the incubation, the cells were washed and immunostained with an APC-labeled mouse anti-human CD69 (BD Biosciences; clone: FN50), a PerCP-Cy5.5 labelled mouse anti-human CD19 (BD Biosciences; clone: SJ25C1) and a FITC-labelled mouse anti-human CD3 (BD Biosciences; clone: HIT3a), and fixed for flow cytometric analysis of CD69 expression on CD19 positive cells (B cells). The percentage of CD69 expressing CD19 positive cells was plotted against the concentrations of test compounds to obtain a concentration response curve, and calculate an IC50 value as a measure of the potency of test compounds in the assay.

Chain of full-length human BTK (Q06187 whole entry): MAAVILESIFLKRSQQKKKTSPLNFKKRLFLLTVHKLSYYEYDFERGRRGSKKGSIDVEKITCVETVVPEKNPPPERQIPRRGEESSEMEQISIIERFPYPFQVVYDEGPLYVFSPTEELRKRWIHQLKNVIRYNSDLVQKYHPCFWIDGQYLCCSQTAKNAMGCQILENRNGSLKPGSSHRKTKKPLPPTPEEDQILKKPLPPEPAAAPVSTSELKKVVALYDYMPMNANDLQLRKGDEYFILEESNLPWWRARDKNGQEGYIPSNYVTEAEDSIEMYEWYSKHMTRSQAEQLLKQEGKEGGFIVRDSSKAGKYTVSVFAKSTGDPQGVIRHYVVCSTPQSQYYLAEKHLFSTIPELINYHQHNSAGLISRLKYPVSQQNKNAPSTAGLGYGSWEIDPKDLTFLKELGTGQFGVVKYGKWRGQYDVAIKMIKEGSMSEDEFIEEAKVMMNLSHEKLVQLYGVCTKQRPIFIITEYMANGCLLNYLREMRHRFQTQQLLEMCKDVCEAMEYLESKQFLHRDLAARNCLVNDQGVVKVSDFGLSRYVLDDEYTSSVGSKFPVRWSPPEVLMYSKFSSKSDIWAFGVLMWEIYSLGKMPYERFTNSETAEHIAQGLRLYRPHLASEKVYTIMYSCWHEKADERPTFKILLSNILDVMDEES

For `Cn1cc(-c2nc3c(-c4ccc(C5(NC(=O)c6noc(C(C)(C)C)n6)CC5)c(F)c4)ccnc3[nH]2)cn1` [Example 51, 5-tert-Butyl-N-(1-[2-fluoro-4-[2-(1-methyl-1H-pyrazol-4-yl)-3H-imidazo[4,5-b]pyridin-7-yl]phenyl]cyclopropyl)-1,2,4-oxadiazole-3-carboxamide], the pIC50 (on full-length human BTK; in assay [1]) was greater than 7.00 each time.

Take `O=C(c1ccc(-c2nc3c(-c4cccc(N5CCOc6cc(C7CC7)cc(F)c6C5=O)c4CO)ccnc3[nH]2)cc1)N1CCOCC1` [Example 1, 8-Cyclopropyl-6-fluoro-4-[2-(hydroxymethyl)-3-(2-[4-[(morpholin-4-yl)carbonyl]phenyl]-3H-imidazo [4,5-b]pyridin-7-yl)phenyl]-2,3,4,5-tetrahydro-1,4-benzoxazepin-5-one]: the pIC50 is greater than 7.00 on full-length human BTK and 5.30 to 6.00 in assay [1].

Take `C=CC(=O)Nc1ccccc1-c1nc2nccc(-c3ccc(CNC(=O)c4nc(C(C)(C)C)no4)c(F)c3)c2[nH]1` [Example 160, 3-tert-butyl-N-[(2-fluoro-4-[2-[2-(prop-2-enamido)phenyl]-3H-imidazo[4,5-b]pyridin-7-yl]phenyl)methyl]-1,2,4-oxadiazole-5-carboxamide]: the pIC50 (on full-length human BTK; in assay [1]) was greater than 7.00 each time.

Consider `C=CC(=O)Nc1cccc(-c2nc3nccc(-c4ccc(CNC(=O)c5nc(C(C)(C)C)no5)c(F)c4)c3[nH]2)c1` [Example 163, 3-tert-butyl-N-[(2-fluoro-4-[2-[3-(prop-2-enamido)phenyl]-3H-imidazo[4,5-b]pyridin-7-yl]phenyl)methyl]-1,2,4-oxadiazole-5-carboxamide], for which the pIC50 (at full-length human BTK; in assay [1]) was greater than 7.00 each time.

Regarding `COc1cccc(-c2nc3c(-c4ccc(CNC(=O)c5ccc(C6CC6)cc5)c(F)c4)ccnc3[nH]2)c1` [Example 64, 4-Cyclopropyl-N-([2-fluoro-4-[2-(3-methoxyphenyl)-3H-imidazo[4,5-b]pyridin-7-yl]phenyl]methyl) benzamide], the figures for the pIC50 (on full-length human BTK; in assay [1]) were greater than 7.00 and 6.00 to 7.00, respectively.

Take `COc1cccc(-c2nc3c(-c4ccc(CNC(=O)c5noc(C(C)(C)C)n5)c(F)c4)ccnc3[nH]2)c1` [Example 73, 5-tert-Butyl-N-([2-fluoro-4-[2-(3-methoxyphenyl)-3H-imidazo[4,5-b]pyridin-7-yl]phenyl]methyl)-1,2,4-oxadiazole-3-carboxamide]: the pIC50 at full-length human BTK is greater than 7.00; in assay [1], 6.00 to 7.00.

With `Cn1cc(-c2nc3c(-c4cnc(CNC(=O)c5noc(C(C)(C)C)n5)c(F)c4)ccnc3[nH]2)cn1` [Example 12, 5-tert-Butyl-[1,2,4]oxadiazole-3-carboxylic acid {3-fluoro-5-[2-(1-methyl-1H-pyrazol-4-yl)-3H-imidazo[4,5-b]pyridin-7-yl]-pyridin-2-ylmethyl}-amide], the figures for the pIC50 (on full-length human BTK; in assay [1]) were greater than 7.00 and 6.00 to 7.00, respectively.

With `Cn1cc(-c2nc3c(-c4cccc(N5CCc6cc(C7CC7)ccc6C5=O)c4CO)ccnc3[nH]2)cn1` [Example 7, 6-cyclopropyl-2-(2-(hydroxymethyl)-3-(2-(1-methyl-1H-pyrazol-4-yl)-3H-imidazo[4,5-b]pyridin-7-yl)phenyl)-3,4-dihydroisoquinolin-1(2H)-one], the pIC50 on full-length human BTK is greater than 7.00; in assay [1], 5.30 to 6.00.

Regarding `CCn1cc(-c2nc3c(-c4ccc(CNC(=O)c5nnc(C(C)(C)C)o5)c(F)c4)ccnc3[nH]2)cn1` [Example 135, 5-(tert-butyl)-N-(4-(2-(1-ethyl-1H-pyrazol-4-yl)-3H-imidazo[4,5-b]pyridin-7-yl)-2-fluorobenzyl)-1,3,4-oxadiazole-2-carboxamide], the pIC50 (on full-length human BTK; in assay [1]) was greater than 7.00 throughout.

Take `CN1CC=C(c2ccc(-c3nc4c(-c5ccc(CNC(=O)c6noc(C(C)(C)C)n6)c(F)c5)ccnc4[nH]3)nc2)CC1` [Example 85, 5-tert-Butyl-N-[(2-fluoro-4-[2-[5-(1-methyl-1,2,3,6-tetrahydropyridin-4-yl)pyridin-2-yl]-3H-imidazo [4,5-b]pyridin-7-yl]phenyl)methyl]-1,2,4-oxadiazole-3-carboxamide; trifluoroacetic acid]: the results for the pIC50 (at full-length human BTK; in assay [1]) were greater than 7.00 and 6.00 to 7.00, respectively.

With `COc1ccc(-c2nc3c(-c4ccc(CNC(=O)c5nc(C(C)(C)C)no5)c(F)c4)ccnc3[nH]2)nc1` [Example 161, 3-tert-butyl-N-([2-fluoro-4-[2-(5-methoxypyridin-2-yl)-3H-imidazo[4,5-b]pyridin-7-yl]phenyl]methyl)-1,2,4-oxadiazole-5-carboxamide], the pIC50 (at full-length human BTK; in assay [1]) was greater than 7.00 each time.

Turning to `CC(C)(C)c1noc(C(=O)NCc2ccc(-c3ccnc4[nH]c(-c5ccc(CN6CCOCC6)cn5)nc34)cc2F)n1` [Example 162, 3-tert-butyl-N-[(2-fluoro-4-[2-[5-(morpholin-4-ylmethyl)pyridin-2-yl]-3H-imidazo[4,5-b]pyridin-7-yl]phenyl)methyl]-1,2,4-oxadiazole-5-carboxamide], the pIC50 (on full-length human BTK; in assay [1]) was greater than 7.00 each time.

In the case of `Cc1c(NC(=O)c2ccc3c(c2)OCC3(C)C)cc(F)cc1-c1ccnc2[nH]c(-c3ccc(C(=O)N4CCOCC4)cc3)nc12` [Example 4, N-[5-Fluoro-2-methyl-3-(2-[4-[(morpholin-4-yl)carbonyl]phenyl]-3H-imidazo[4,5-b]pyridin-7-yl)phenyl]-3,3-dimethyl-2,3-dihydro-1-benzofuran-6-carboxamide], the pIC50 on full-length human BTK is greater than 7.00; in assay [1] it was 6.00 to 7.00.

As for `CC(C)(C)c1noc(C(=O)NCc2ccc(-c3ccnc4[nH]c(-c5ccc(N6CCC(F)(F)CC6)cn5)nc34)cc2F)n1` [Example 164, 3-tert-butyl-N-[(4-[2-[5-(4,4-difluoropiperidin-1-yl)pyridin-2-yl]-3H-imidazo[4,5-b]pyridin-7-yl]-2-fluorophenyl)methyl]-1,2,4-oxadiazole-5-carboxamide], the negative logarithm of the IC50 (pIC50) was greater than 7.00 at full-length human BTK and 6.00 to 7.00 in assay [1].

With `CCn1cc(-c2nc3c(-c4ccc(CNC(=O)c5noc(C(C)(C)C)n5)c(F)c4)ccnc3[nH]2)cn1` [Example 131, 5-tert-Butyl-[1,2,4]oxadiazole-3-carboxylic acid 4-[2-(1-ethyl-1H-pyrazol-4-yl)-3H-imidazo[4,5-b]pyridin-7-yl]-2-fluoro-benzylamide], the pIC50 (on full-length human BTK; in assay [1]) was greater than 7.00 in each case.

Consider `Cn1cc(-c2nc3c(-c4ccc(CNC(=O)c5noc(C6CC6)n5)c(F)c4)ccnc3[nH]2)cn1` [Example 59, 5-Cyclopropyl-N-([2-fluoro-4-[2-(1-methyl-1H-pyrazol-4-yl)-3H-imidazo[4,5-b]pyridin-7-yl]phenyl]methyl)-1,2,4-oxadiazole-3-carboxamide], for which the pIC50 at full-length human BTK is greater than 7.00; in assay [1] it was 6.00 to 7.00.

For `CN1CCN(Cc2ccc(-c3nc4c(-c5ccc(CNC(=O)c6noc(C(C)(C)C)n6)c(F)c5)ccnc4[nH]3)nc2)CC1` [Example 69, 5-tert-Butyl-N-[[2-fluoro-4-(2-[5-[(4-methylpiperazin-1-yl)methyl]pyridin-2-yl]-3H-imidazo[4,5-b]pyridin-7-yl)phenyl]methyl]-1,2,4-oxadiazole-3-carboxamide], the pIC50 (on full-length human BTK; in assay [1]) was greater than 7.00 throughout.

For `CC(C)(C)c1nc(C(=O)NCc2ccc(-c3ccnc4[nH]c(C5=CCNCC5)nc34)cc2F)no1` [Example 134, 5-tert-Butyl-[1,2,4]oxadiazole-3-carboxylic acid 2-fluoro-4-[2-(1,2,3,6-tetrahydro-pyridin-4-yl)-3H-imidazo[4,5-b]pyridin-7-yl]-benzylamide], the pIC50 at full-length human BTK was greater than 7.00; in assay [1], 6.00 to 7.00.

As for `CN(C)C(=O)N1CC=C(c2nc3c(-c4ccc(CNC(=O)c5noc(C(C)(C)C)n5)c(F)c4)ccnc3[nH]2)CC1` [Example 143, 4-[7-(4-{[(5-tert-Butyl-[1,2,4]oxadiazole-3-carbonyl)-amino]-methyl}-3-fluoro-phenyl)-3H-imidazo[4,5-b]pyridin-2-yl]-3,6-dihydro-2H-pyridine-1-carboxylic Acid Dimethylamide], the pIC50 (on full-length human BTK; in assay [1]) was greater than 7.00 each time.

As a reminder, the pIC50 is the negative decadic logarithm of the IC50, by convention in mol/L.
